Experimental data published in patent US20250154170A1, “FUSED PYRIMIDINES AS KRAS INHIBITORS” (priority 2022, published 2025).
“And” between values parts separate entries of the source, which are not always exact repeats. Identical values can stand only once.

Legend:
K-Ras-wildtype = K-Ras-wildtype (Homo sapiens, UniProt P01116); experiment: K-Ras-wildtype activation by SOS1 (wild-type KRAS activation by SOS1cat assay, HTRF); format: biochemical; conditions: mean, SOS1cat mediated loading of wild-type GST-KRAS-GDP with fluorescent GTP analogue, read-out: K-Ras-wildtype activation by SOS1 IC50 - [mol/l] (mean)
Description: (§1) Preparation of test compound dilutions. A 100-fold concentrated solution of the test compound (50 nL) in DMSO was transferred to microtiter test plates (384 or 1,536 wells, Greiner Bio-One, Germany) using either a Hummingbird liquid handler (Digilab, MA, USA) or an Echo acoustic system (Labcyte, CA, USA). Plates were sealed with adhesive foil or heat-sealed and stored at −20 C until use. Serial dilutions of test compounds were prepared in 100% DMSO using a Precision Pipetting System (BioTek, USA).
(§2) Measurement and evaluation of inhibition data, calculation of IC50 values. Homogeneous time-resolved fluorescence (HTRF) was measured with a PHERAstar reader (BMG, Germany) using the HTRF module (excitation: 337 nm; emission 1: 620 nm, emission 2: 665 nm). The ratio of the emissions at 665 and 620 nm was used as the specific signal for further evaluation. The data were normalized using the controls: DMSO=0% inhibition, inhibition control wells with inhibitor control solution=100% inhibition. Compounds were tested in duplicates at up to 11 concentrations (e.g. 20 μM, 5.7 μM, 1.6 μM, 0.47 μM, 0.13 μM, 38 nM, 11 nM, 3.1 nM, 0.89 nM, 0.25 nM and 0.073 nM). IC50 values were calculated using a four-parameter fit, with a commercial software package (Genedata Screener, Switzerland).
(§3) KRAS^G12C activation by SOS1^cat assay (“On-assay”). This assay quantifies SOS1^cat mediated loading of KRAS^G12C-GDP with a fluorescent GTP analogue. Detection of successful loading was achieved by measuring resonance energy transfer from anti-GST-terbium (FRET donor) bound to GST-KRAS^G12C to the loaded fluorescent GTP analogue (FRET acceptor). The fluorescent GTP analogue EDA-GTP-DY-647P1 [2′/3′-O-(2-aminoethyl-carbamoyl)guanosine-5′-triphosphate labelled with DY-647P1 (Dyomics GmbH, Germany)] was synthesized by Jena Bioscience (Germany) and supplied as a 1 mM aqueous solution. A KRAS^G12C working solution was prepared in assay buffer [10 mM HEPES pH 7.4 (AppliChem), 150 mM NaCl (Sigma), 5 mM MgCl2 (Sigma), 1 mM DTT (Thermo Fisher), 0.05% BSA Fraction V pH 7.0 (ICN Biomedicals), 0.0025% (v/v) Igepal (Sigma)] containing GST-KRAS^G12C (final concentration in assay 50 nM) and anti-GST-terbium (Cisbio, France) (final concentration in assay 1 nM). A SOS1^cat working solution was prepared in assay buffer containing SOS1^cat (final concentration 10 nM) and EDA-GTP-DY-647P1 (final concentration 100 nM). An inhibitor control solution was prepared in assay buffer containing EDA-GTP-DY-647P1 (final concentration 100 nM) without SOS1^cat. All steps of the assay were performed at 20° C. A volume of 3 μL of the KRAS^G12C working solution was added to all wells of the test plate using a Multidrop dispenser (Thermo LabSystems). After 15 min, 2 μL of the SOS1^ct working solution was added to all wells, except for the inhibitor control solution wells. After 30 min incubation, HTRF was measured.
(§4) G12D and Wild-type KRAS activation by SOS1cat assays. These assays quantify human SOS1^cat mediated loading of wild-type GST-KRAS^WT-GDP or GST-KRAS^G12D-GDP with a fluorescent GTP analogue. The assay was performed similarly to the KRAS^G12C activation by SOS1^cat assay with the following differences: final concentration of SOS1^cat of 60 nM and final incubation time before measurement of 10 min for KRAS^G12D assay, final concentration of SOS1^cat of 20 nM and final incubation time before measurement of 15 min for wild-type KRAS assay, respectively. GST-KRAS^G12C was replaced by GST-KRAS^WT or GST-KRAS^G12D, respectively, also at 50 nM final concentration.
Wild-type KRAS activation by SOS1^cat assay. This assay quantifies human SOS1^cat mediated loading of wild-type GST-KRAS-GDP with a fluorescent GTP analogue. The assay was performed similarly to the KRAS^G12D activation by SOS1^cat assay just by replacement of GST-KRAS^G12D by wild-type GST-KRAS while concentrations of all components and incubation times were the same.

K-Ras G12D = K-Ras G12D (Homo sapiens, UniProt P01116, G12D); experiment: K-Ras G12D activation by SOS1 (KRAS G12D activation by SOS1cat assay, HTRF); format: biochemical; conditions: mean, SOS1cat mediated loading of GST-KRAS G12D-GDP with fluorescent GTP analogue, read-out: K-Ras G12D activation by SOS1 IC50 - [mol/l] (mean)
Description: as §1, §2, §3, §4
KRAS^G12D activation by SOS1^cat assay (“On-assay”). This assay quantifies SOS1^cat mediated loading of KRAS^G12D-GDP with a fluorescent GTP analogue. Detection of successful loading was achieved by measuring resonance energy transfer from anti-GST-terbium (FRET donor) bound to GST-KRAS^G12D to the loaded fluorescent GTP analogue (FRET acceptor).

Sequence of K-Ras-wildtype (P01116 1-188 isoform P01116-2): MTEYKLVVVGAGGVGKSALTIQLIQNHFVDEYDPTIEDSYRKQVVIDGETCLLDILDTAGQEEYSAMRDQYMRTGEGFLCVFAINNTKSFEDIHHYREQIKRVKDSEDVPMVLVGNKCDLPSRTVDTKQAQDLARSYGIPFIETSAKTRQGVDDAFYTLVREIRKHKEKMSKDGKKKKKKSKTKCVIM
Sequence of K-Ras G12D (P01116 1-188 isoform P01116-2 G12D): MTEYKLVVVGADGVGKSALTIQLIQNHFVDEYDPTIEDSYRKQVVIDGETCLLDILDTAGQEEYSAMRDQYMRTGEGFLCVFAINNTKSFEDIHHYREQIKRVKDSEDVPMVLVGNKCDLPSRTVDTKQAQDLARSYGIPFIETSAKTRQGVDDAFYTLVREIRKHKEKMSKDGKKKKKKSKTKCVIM

**Q.** Which results are given for C#Cc1c(F)ccc2cc(O)cc(Oc3nc4c(N5CC6CCC(C5)NC6)nc(OC[C@@]56CCCN5C[C@H](F)C6)nc4s3)c12 (relative stereo) [Example 16, 4-[(7-[(1R*,5R*)-3,6-diazabicyclo[3.2.2]nonan-3-yl]-5-{[(2R,7aS)-2-fluorotetrahydro-1H-pyrrolizin-7a(5H)-yl]methoxy}[1,3]thiazolo[5,4-d]pyrimidin-2-yl)oxy]-5-ethynyl-6-fluoronaphthalen-2-ol]?
**A.** IC50 (K-Ras-wildtype): 212 nM; IC50 (K-Ras G12D): 15.2 nM

**Q.** For C#Cc1c(F)ccc2cc(O)cc(Oc3nc4c(N5CC6CCC(C5)NC6)nc(OC[C@@]56CCCN5C[C@H](F)C6)nc4s3)c12 (single isomer, unassigned) [Example 20, 4-[(7-[(1R*,5R*)-3,6-diazabicyclo[3.2.2]nonan-3-yl]-5-{[(2R,7aS)-2-fluorotetrahydro-1H-pyrrolizin-7a(5H)-yl]methoxy}[1,3]thiazolo[5,4-d]pyrimidin-2-yl)oxy]-5-ethynyl-6-fluoronaphthalen-2-ol], which IC50 (K-Ras-wildtype) is on record?
**A.** 405 nM

**Q.** What about the IC50 (K-Ras G12D) of the same compound?
**A.** 8.11 nM

**Q.** Which IC50 (K-Ras-wildtype) does the source give for C#Cc1c(F)ccc2cc(O)cc(Oc3nc4c(N5CC6CCC(C5)NC6)nc(OC[C@@]56CCCN5C[C@H](F)C6)nc4s3)c12 (single isomer, unassigned) [Example 21, 4-[(7-[(1S*,5S*)-3,6-diazabicyclo[3.2.2]nonan-3-yl]-5-{[(2R,7aS)-2-fluorotetrahydro-1H-pyrrolizin-7a(5H)-yl]methoxy}[1,3]thiazolo[5,4-d]pyrimidin-2-yl)oxy]-5-ethynyl-6-fluoronaphthalen-2-ol] here?
**A.** 182 nM

**Q.** What about the IC50 (K-Ras G12D) of the same compound?
**A.** 219 nM

**Q.** C#Cc1c(F)ccc2cc(O)cc(Oc3nc4c(N5C[C@H]6CC(F)[C@@H](C5)N6)nc(OC[C@@]56CCCN5C[C@H](F)C6)nc4s3)c12 (single isomer, unassigned) [Example 24, 5-Ethynyl-6-fluoro-4-[(7-[(1R*,5R*)-6-fluoro-3,8-diazabicyclo[3.2.1]octan-3-yl]-5-{[(2R,7aS)-2-fluorotetrahydro-1H-pyrrolizin-7a(5H)-yl]methoxy}[1,3]thiazolo[5,4-d]pyrimidin-2-yl)oxy]naphthalen-2-ol] was tested. Which IC50 (K-Ras-wildtype) did it give?
**A.** 24.1 nM

**Q.** What about the IC50 (K-Ras G12D) of the same compound?
**A.** 26.7 nM

**Q.** For C#Cc1c(F)ccc2cc(O)cc(Oc3nc4c(N5C[C@H]6CC(F)[C@@H](C5)N6)nc(OC[C@@]56CCCN5C[C@H](F)C6)nc4s3)c12 (single isomer, unassigned) [Example 25, 5-Ethynyl-6-fluoro-4-[(7-[(1R*,5R*)-6-fluoro-3,8-diazabicyclo[3.2.1]octan-3-yl]-5-{[(2R,7aS)-2-fluorotetrahydro-1H-pyrrolizin-7a(5H)-yl]methoxy}[1,3]thiazolo[5,4-d]pyrimidin-2-yl)oxy]naphthalen-2-ol], which IC50 (K-Ras-wildtype) is on record?
**A.** 69.9 nM

**Q.** And the IC50 (K-Ras G12D)?
**A.** 18.7 nM

**Q.** C#Cc1c(F)ccc2cc(O)cc(Oc3nc4c(N5C[C@H]6CC(F)[C@@H](C5)N6)nc(OC[C@@]56CCCN5C[C@H](F)C6)nc4s3)c12 (single isomer, unassigned) [Example 26, 5-Ethynyl-6-fluoro-4-[(7-[(1R*,5R*)-6-fluoro-3,8-diazabicyclo[3.2.1]octan-3-yl]-5-{[(2R,7aS)-2-fluorotetrahydro-1H-pyrrolizin-7a(5H)-yl]methoxy}[1,3]thiazolo[5,4-d]pyrimidin-2-yl)oxy]naphthalen-2-ol] was tested. Which IC50 (K-Ras-wildtype) did it give?
**A.** 25.9 nM

**Q.** And the IC50 (K-Ras G12D)?
**A.** 26.3 nM

**Q.** For C#Cc1c(F)ccc2cc(O)cc(Oc3nc4c(N5C[C@H]6CC(F)[C@@H](C5)N6)nc(OC[C@@]56CCCN5C[C@H](F)C6)nc4s3)c12 (single isomer, unassigned) [Example 27, 5-Ethynyl-6-fluoro-4-[(7-[(1R*,5R*)-6-fluoro-3,8-diazabicyclo[3.2.1]octan-3-yl]-5-{[(2R,7aS)-2-fluorotetrahydro-1H-pyrrolizin-7a(5H)-yl]methoxy}[1,3]thiazolo[5,4-d]pyrimidin-2-yl)oxy]naphthalen-2-ol], which IC50 (K-Ras-wildtype) is on record?
**A.** 91.2 nM

**Q.** What about the IC50 (K-Ras G12D) of the same compound?
**A.** 23.7 nM

**Q.** With C#Cc1c(F)ccc2cc(O)cc(Oc3nc4c(N5CC6CCC(C5)N6)nc(OC[C@@]56CCCN5CC(F)C6)nc4s3)c12 (stereo in doubt) [Example 6, 4-{[7-(3,8-diazabicyclo[3.2.1]octan-3-yl)-5-{[(2R,7aS)-2-fluorotetrahydro-1H-pyrrolizin-7a(5H)-yl]methoxy}[1,3]thiazolo[5,4-d]pyrimidin-2-yl]oxy}-5-ethynyl-6-fluoronaphthalen-2-ol] as the compound, how does the IC50 (K-Ras-wildtype) read?
**A.** 32.8 nM and 33.1 nM

**Q.** What about the IC50 (K-Ras G12D) of the same compound?
**A.** 1.86 nM and 2.18 nM

**Q.** What does the source list for Oc1cc(Oc2nc3c(N4CC5CCC(C4)N5)nc(OCC45CCCN4CCC5)nc3s2)c2ccccc2c1 [Example 1, 4-{[7-(3,8-diazabicyclo[3.2.1]octan-3-yl)-5-(tetrahydro-1H-pyrrolizin-7a(5H)-ylmethoxy)[1,3]thiazolo[5,4-d]pyrimidin-2-yl]oxy}-2-naphthol]?
**A.** IC50 (K-Ras-wildtype): ≥ 20000 nM; IC50 (K-Ras G12D): 1000 nM

**Q.** What does the source list for C#Cc1cccc2cc(O)cc(Oc3nc4c(N5CC6CCC(C5)N6)nc(OCC56CCCN5CCC6)nc4s3)c12 [Example 2, 4-{[7-(3,8-diazabicyclo[3.2.1]octan-3-yl)-5-(tetrahydro-1H-pyrrolizin-7a(5H)-ylmethoxy)[1,3]thiazolo[5,4-d]pyrimidin-2-yl]oxy}-5-ethynyl-2-naphthol]?
**A.** IC50 (K-Ras-wildtype): 126 nM; IC50 (K-Ras G12D): 5.55 nM

**Q.** How did the IC50 (K-Ras-wildtype) turn out when Oc1cc(Oc2nc3c(N4C[C@H]5CC[C@@H](C4)N5)nc(OCC45CCCN4CCC5)nc3s2)c2c(F)cccc2c1 [Example 3, 4-({7-[(1R,5S)-3,8-diazabicyclo[3.2.1]octan-3-yl]-5-[(tetrahydro-1H-pyrrolizin-7a(5H)-yl)methoxy][1,3]thiazolo[5,4-d]pyrimidin-2-yl}oxy)-5-fluoronaphthalen-2-ol] was run?
**A.** 8140 nM

**Q.** What about the IC50 (K-Ras G12D) of the same compound?
**A.** 325 nM

**Q.** Which results are given for Cc1cccc2cc(O)cc(Oc3nc4c(N5CC6CCC(C5)N6)nc(OCC56CCCN5CCC6)nc4s3)c12 [Example 4, 4-({7-(3,8-diazabicyclo[3.2.1]octan-3-yl)-5-[(tetrahydro-1H-pyrrolizin-7a(5H)-yl)methoxy][1,3]thiazolo[5,4-d]pyrimidin-2-yl}oxy)-5-methylnaphthalen-2-ol]?
**A.** IC50 (K-Ras-wildtype): 1550 nM; IC50 (K-Ras G12D): 79.8 nM

**Q.** C#Cc1c(F)ccc2cc(O)cc(Oc3nc4c(N5C[C@H]6CC[C@@H](C5)N6)nc(OCC56CCCN5CCC6)nc4s3)c12 [Example 5, 4-({7-[(1R,5S)-3,8-diazabicyclo[3.2.1]octan-3-yl]-5-[(tetrahydro-1H-pyrrolizin-7a(5H)-yl)methoxy][1,3]thiazolo[5,4-d]pyrimidin-2-yl}oxy)-5-ethynyl-6-fluoronaphthalen-2-ol] was tested. Which IC50 (K-Ras-wildtype) did it give?
**A.** 69.1 nM

**Q.** What about the IC50 (K-Ras G12D) of the same compound?
**A.** 3.79 nM

**Q.** How did the IC50 (K-Ras-wildtype) turn out when Oc1cc(Nc2nc3c(N4CC5CCC(C4)N5)nc(OCC45CCCN4CCC5)nc3s2)c2ccccc2c1 [Example 7, 4-({7-(3,8-diazabicyclo[3.2.1]octan-3-yl)-5-[(tetrahydro-1H-pyrrolizin-7a(5H)-yl)methoxy][1,3]thiazolo[5,4-d]pyrimidin-2-yl}amino)naphthalen-2-ol] was run?
**A.** ≥ 20000 nM

**Q.** And the IC50 (K-Ras G12D)?
**A.** 3360 nM
